What was measured:
[1] = test system: S. ramocissimus R1V; assay: germination and growth of spores in liquid YMG medium; type: cell-based; settings: 5.10⁷ spores/ml, 25 ml YMG medium, shake flasks, 5 days at 30°C
Description: (§1) Spores, mycelium, and protoplasts of strain S. ramocissimus R1V were examined with respect to the minimal inhibitory concentration of mocimycin on their growth properties.
(§2) Spores of strain S. ramocissimus R1V and the control S. ramocissimus CBS 190.69 were inoculated at 5.10⁷ spores/ml in parallel shake flasks containing 25 ml YMG medium and mocimycin at concentrations ranging from 0 to 1 g/l. Incubation was for 5 days at 30°C. For the control strain 0.15 g/l mocimycin inhibited germination (and/or growth) of the spores, whereas spores of S. ramocissimus strain R1V still germinated and grew at mocimycin concentrations up to 0.75 g/l.

[2] = test system: S. ramocissimus CBS 190.69; assay: as above; type: cell-based; settings: 5.10⁷ spores/ml, 25 ml YMG medium, shake flasks, 5 days at 30°C
Description: as §1, §2

[3] = test system: S. ramocissimus R1V; assay: germination and growth of spores on solid medium (HI-agar); type: cell-based; parameters: key to Germination and growth of spores: +++ = good growth; ++ = slow growth; + = very slow growth; - = no growth
Description: (§3) Similar results were obtained on solid medium (HI-agar, Difco) containing 0 to 1 g/l mocimycin; spores from S. ramocissimus R1V and S. ramocissimus CBS 190.69 were diluted such that approximately 200 colony forming units were applied to each agar plate. Incubation of the plates was at 30°C for 5 days. For the control strain S. ramocissimus CBS 190.69 no colonies appeared above 0.1 g/l mocimycin; on the contrary, spores of S. ramocissimus strain R1V quantitatively were able to germinate and form colonies at least up to 0.75 g/l.

[4] = test system: S. ramocissimus CBS 190.69; assay: as above; type: cell-based; parameters: key to Germination and growth of spores: +++ = good growth; ++ = slow growth; + = very slow growth; - = no growth
Description: as §3

[5] = molecular target: T1, SrEF-Tu mutant A378V (Streptomyces ramocissimus, UniProt P29542, A379V); assay: in vitro poly(U) directed poly(phe) synthesis; type: biochemical, S. ramocissimus
T1 construct: made in house; host or cells: E. coli PM1455
Description: The sensitivity of SrEF-Tu mutants A378V and A378T to elfamycin was tested by in vitro studies. Both parent and mutant S. ramocissimus EF-Tu, after transformation of the respective cloned genes, were expressed in an E. coli strain encoding an elfamycin resistant EF-Tu. Cell-free extracts of these transformants were subsequently tested for elfamycin sensitivity of the translation apparatus, using a variation on the procedure described by C. Glöckner and H. Wolf (cited above). […] The parent SrEF-Tu reached 50% residual activity already at 1.6 mg/l. […]
Plasmids pUSrT1-1, pUSrT1V-1 and pUSrT1T-1 were transformed to E. coli PM1455 (tufA, tufB::Mu, rpoB, recA56; P. van der Meide et al., Eur. J. Biochem. 130 (1983) 409-417); this strain has only one active tuf gene, which encodes an elfamycin resistant EF-Tu. […] The first 4 fractions having absorbance at 260 nm were pooled. […]
At 0°C an incubation mixture was prepared consisting of 40 mM Tris-acetate pH 7.6, 10 mM Mg-acetate, 60 mM NH₄Cl, 5 mM β-mercaptoethanol, 1 mM ATP, 0.025 mM GTP, 2.5 mM phosphoenolpyruvate, 0.25 µg/ml pyruvate kinase, 0.8 mg/ml tRNA, 0.1 mg/ml poly(U), 95 µM phenylalanine, and 3 µCi/ml ³H-phenylalanine (57 Ci/mmol). […] Incorporation of ³H-phenylalanine was analyzed in a liquid scintillation counter. […]

[6] = approximately 200 colony forming units per plate, 30°C for 5 days

T1 sequence (P29542 whole entry A379V): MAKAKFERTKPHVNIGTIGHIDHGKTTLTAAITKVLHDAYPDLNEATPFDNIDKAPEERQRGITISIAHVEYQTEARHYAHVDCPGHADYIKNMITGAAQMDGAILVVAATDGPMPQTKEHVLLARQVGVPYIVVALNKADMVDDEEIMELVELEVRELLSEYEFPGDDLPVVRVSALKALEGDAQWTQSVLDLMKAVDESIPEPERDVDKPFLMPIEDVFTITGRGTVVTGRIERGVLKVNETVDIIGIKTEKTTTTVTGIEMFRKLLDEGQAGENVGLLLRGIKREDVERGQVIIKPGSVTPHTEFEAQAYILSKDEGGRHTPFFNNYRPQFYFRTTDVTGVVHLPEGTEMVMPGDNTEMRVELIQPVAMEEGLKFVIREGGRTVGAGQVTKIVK

**Q.** `C/C=C\C=C\[C@@H]1O[C@](O)([C@H](CC)C(=O)NC/C=C/C=C(\C)[C@@H](OC)[C@H](C)[C@@H]2O[C@H](/C=C/C=C/C=C(\C)C(=O)c3c(O)cc[nH]c3=O)[C@H](O)[C@@H]2O)[C@H](O)[C@H](O)C1(C)C` [mocimycin, Mocimycin] was tested. Which “mocimycin concentrations at which spores still germinated and grew” value [1] did it give?
**A.** The value was “up to 0.75 g/l”.

**Q.** And the “mocimycin concentration that inhibited germination (and/or growth) of the spores” value [2]?
**A.** The value was 0.15 g/L.

**Q.** What about the “mocimycin concentration up to which spores were able to germinate and form colonies” value [3, 6] of the same molecule?
**A.** The value was no less than 0.75 g/L.

**Q.** And the “Germination and growth of spores” value ([3]; mocimycin 0.10 g/l)?
**A.** The value was “+++”.

**Q.** And the “Germination and growth of spores” value ([3]; mocimycin 0.20 g/l)?
**A.** Its value is “+++”.

**Q.** And the “Germination and growth of spores” value ([3]; mocimycin 0.40 g/l)?
**A.** Its value is “++”.

**Q.** And the “Germination and growth of spores” value ([3]; mocimycin 0.60 g/l)?
**A.** Its value is “++”.

**Q.** And the “Germination and growth of spores” value ([3]; mocimycin 0.75 g/l)?
**A.** The value was “+”.

**Q.** And the “Germination and growth of spores” value ([3]; mocimycin 1.0 g/l)?
**A.** Its value is “-”.

**Q.** What about the “mocimycin concentration above which no colonies appeared” value [4, 6] of the same molecule?
**A.** Its value is “above 0.1 g/l”.

**Q.** What about the “Germination and growth of spores” value ([4]; mocimycin 0.10 g/l) of the same molecule?
**A.** Its value is “+”.

**Q.** What about the “Germination and growth of spores” value ([4]; mocimycin 0.20 g/l) of the same molecule?
**A.** The value was “-”.

**Q.** And the “Germination and growth of spores” value ([4]; mocimycin 0.40 g/l)?
**A.** The value was “-”.

**Q.** What about the “Germination and growth of spores” value ([4]; mocimycin 0.60 g/l) of the same molecule?
**A.** The value was “-”.

**Q.** And the “Germination and growth of spores” value ([4]; mocimycin 0.75 g/l)?
**A.** Its value is “-”.

**Q.** And the “Germination and growth of spores” value ([4]; mocimycin 1.0 g/l)?
**A.** Its value is “-”.

**Q.** What about the “efficiency of ³H-phenylalanine incorporation compared to the parallel incubation without mocimycin” value ([5]; 16 mg/l mocimycin, period of 40 minutes) of the same molecule?
**A.** The value was 80%.

**Q.** What about the “mocimycin concentration at a residual activity of 50% in the in vitro poly(phe) synthesis” value ([5]; S-30 extract of E. coli PM1455 transformant, reaction time 10 minutes) of the same molecule?
**A.** The value was 160 mg/L.

— patent publication EP0466251A1, “Elfamycin-resistant mutants” (priority 1990, dated 1992)
